In this assay the test system is Tg23 mice (ICERIγ transgenic diabetes model mice). In words: Experimental Example 1: effect of estradiol administration on blood glucose and insulin-producing cells in diabetes model mice. It counts as in vivo, mouse. On the procedure:
Blood glucose levels were measured by an enzyme-electrode method with ONE TOUCH UltraVue (Johnson & Johnson K.K.) on whole blood taken from tail veins of subject animals.
Pancreases were fixed in 10% formalin, embedded in paraffin, and sliced into sections having a thickness of 2 μm. The sections were immunostained with overnight incubation at 4° C. in dilution solutions containing various primary antibodies described below.
Primary antibodies: Anti-insulin antibody (dilution rate 1:500; DAKO), anti-glucagon antibody (dilution rate 1:500; Linco Research Inc.), anti-DBA antibody (dilution rate 1:300; Vector Laboratories), anti-Pdx-1 antibody (dilution rate 1:1000; kindly provided by Chris V. E. Wright, Vanderbilt University), anti-collagen type IV antibody (dilution rate 1:250; PROGEN Biotechnik), and anti-Glut 4 antibody (dilution rate 1:1000; Chemicon).
The primary antibodies were detected by immunofluorescence labeling using secondary antibodies conjugated with Alexa 488 or Alexa 568 (1:200; Molecular Probes); third antibody conjugated with biotin-labeled secondary antibodies and streptavidin Alexa 488 or Alexa 568 (1:800; Vector Laboratories); or by an immunoperoxidase staining method using biotin-labeled secondary antibodies. Staining was visualized with diaminobenzidine. The sections were counterstained with hematoxylin. Images were captured on a BZ9000 microscope (Keyence), or in the confocal mode on an LSM 510 META confocal microscope (Carl Zeiss). Immunofluorescence intensity was measured in random fields (n=30/section) using LSM Zeiss software, and the result was expressed as average pixel intensity.
ICERIγ transgenic mice (male) were generated from a pure line C57BL/6J (Japan SLC, Inc.) in accordance with the method described in Example 1 of Patent Literature 1 (WO2004/072282). […]
Tg23 mice (11 weeks of age) were divided into two groups: an estradiol administration group (n=24), and a control group (n=57). […] Then, body weight and blood glucose levels of the Tg mice and wild-type mice (WT) (n=81) were monitored every week, and the mice were dissected after 43 weeks. […]

Consider `C[C@]12CC[C@@H]3c4ccc(O)cc4CC[C@H]3[C@@H]1CC[C@@H]2O` [estradiol, 17β-estradiol], for which the blood glucose levels result (Tg23 mice 11 weeks of age, testectomy (Tx) + single 17β-estradiol pellet s.c. (0.72 mg/pellet, 90-day release), vs wild-type mice) is reported as “lowered to the same levels of normal mice”. Besides, the “persistence of lowered blood glucose levels” value (Tx+E group, Tg23 mice) is listed as “maintained until death”. Also, the “insulin-producing cells in pancreatic duct epithelium cells of the pancreas” value (Tx+E group, anti-insulin immunostaining, 1 week after estradiol administration) is given as “induced”.

The values above are taken from patent US20120172344A1, “INSULIN-PRODUCING CELL INDUCER, GLUCOSE INTAKE ENHANCER, AND THERAPEUTIC AGENT FOR DIABETES OR DIABETES COMPLICATIONS” (KYUSHU UNIVERSITY, NATIONAL UNIVERSITY CORPORATION, priority 2009, published 2012).
